{
  "source": "patent EP4050002A1",
  "about": "“ANTI-PROLIFERATIVE AGENTS” (First Health Pharmaceuticals B.V., priority 2021, dated 2022)",
  "key": {"[1]": {"assay": "Tissue distribution after single I.P. administration", "type": "in vivo, male Swiss Albino Mice"}, "[2]": {"assay": "Kinetic solubility (turbidimetry)", "type": "physicochemical", "settings": "for Absorbance at 620nm: PBS pH 7.4, 37°C, 2 h", "method": "Kinetic solubility was assessed in phosphate buffered saline at pH 7.4 according to the turbidimetry method. Turbidity (precipitation) was measured by absorbance at 620 nm following incubation at 37°C for 2 h. Stock solution of compounds in DMSO were prepared to produce the desired final range of concentrations, then these were added to the buffer to obtain the final test compound concentrations (1 µM, 3 µM, 10 µM, 30 µM, 100 µM), with a final DMSO concentration 1%). Solubility was estimated from the concentration of tested compound that produced a significant increase in absorbance (≥ 0.003 OD at 620 nm) above vehicle control (1% DMSO in water). Miconazole, Reserpine and Propranolol were used as controls."}, "Plasma stability [3]": {"assay": "Plasma stability", "type": "in vitro ADME", "settings": "Human plasma", "method": "(§1) Plasma previously separated from whole blood in EDTA-treated tubes and frozen; blood samples obtained from healthy volunteers, Sprague Dawley rats and CD1 mice, was thawed at room temperature and centrifuged at 1400x RCF 4°C, for 15 minutes. Approximately 90% of the clear supernatant fraction was transferred to a separate tube and was used for the assay.\n(§2) Stocks (1 mM and 25 µM) of test compound were prepared in acetonitrile:water (50:50 v/v). Plasma samples were heat inactivated at 54°C. 3 µl of 25 µM test compound were added to 72 µl of heat inactivated plasma. A 50 µL aliquot of the mixture was taken and crashed with 200 µl of acetonitrile containing Telmisartan 100 ng/ml as internal standard and was further processed along with other time points: 10, 30 60 and 120 minutes.\n(§3) Final working stock of 1 µM was prepared by diluting 12 µl of 25 µM stock in 288 µl of plasma. The obtained solution (300 µl) of plasma containing the test compound was incubated for […] at 37°C in shaker water bath with gentle shaking. 50 µl aliquot of sample at 10, 30, 60 and 120 min was precipitated immediately with 200 µl of acetonitrile containing internal standard and centrifuged at 4000x RCF, 4°C for 20 minutes. 150 µl of supernatant was diluted with 150 µl of water and analyzed by LC-MS/MS.\n(§4) The % remaining of the test substance was calculated as: (Peak Area ratio at time (min))/(Peak Area Ratio at 0 min) ^∗ 100\n(§5) The API400 MS and Agilent 1260 Infinity LC were used. Mobile Phase included 10mM Ammonium acetate with 0.1% formic acid in MilliQ water, and Methanol. The column was Phenomenex, KINETIC EVO C18 100A 5u 50^∗4.6 mm, 10 µl injection volume."}, "Plasma stability [4]": {"assay": "Plasma stability", "type": "in vitro ADME, Sprague Dawley rats", "settings": "Rat plasma", "method": "as §1, §2, §3, §4, §5"}, "A549": {"tested_on": "A549", "assay": "Cytotoxicity, cell count method", "type": "cell-based", "settings": "Homo sapiens, A549, 72 hours of incubation", "method": "(§6) The anti-tumor activity of the compounds of the present invention was evaluated as the effect on the proliferation and survival of tumor cells by counting the number of living cells in presence or absence of the compounds (\"cell count method\"), and as the effect on the viability and metabolic activity of the cells, by using particular substrates that are converted by cellular enzymes into coloured or luminescent products, proportionally with metabolic activity and state of the cell, such as the MTS tetrazolium compound (\"MTS method\") or luciferin (\"ATP-based method\") respectively.\n(§7) Cells were seeded at 3 to 5 x 10^4 cells/well density depending on cell lines and maintained at 37°C in 5% CO2. After 24 hours cells were treated with ascending concentrations of the investigational compounds and the reference (5-fluoro-Uracyl) in a range from 0 to 100 µM. Compounds were dissolved in DMSO which final concentration in each well was 0.5% v:v. After 72 h of incubation with compounds, the cells were detached with trypsin and re-suspended in 1 ml of complete medium; the cell number was evaluated using a Z2 Coulter Counter (\"cell count method\") (Attallah and Johnson, A simple highly sensitive methods for the determination of cell viability using an electronic particle analyzer, Coulter counter J. Immunol. Methods. 1981, 41, 155; Leonardi et al., Activated kinase screening identifies the IKBKE oncogene as a positive regulator of autophagy. Autophagy, 2019, 15, 312). Alternatively, after the 72 hours of incubation with compounds, the MTS solution (CellTiter 96® AQueous One Solution Cell Proliferation Assay) is added to each well and absorbance at 490 nm wavelength is read after 2 hours of incubation (\"MTS method\"). Results in Tables 8-13, 17, 18 were obtained with the cell count method. Results in Tables 14-15 were obtained with the MTS method. Results in Table 16 were obtained with ATP-based method."}, "CALU1": {"tested_on": "CALU1", "assay": "Cytotoxicity, cell count method", "type": "cell-based", "settings": "Homo sapiens, Calu-1, CALU1, 72 hours of incubation", "method": "as §6, §7"}, "A375 cell line": {"tested_on": "A375 cell line", "assay": "Cytotoxicity, cell count method", "type": "cell-based", "settings": "Homo sapiens, A-375, A375, 72 hours of incubation", "method": "as §6, §7"}, "A549 Red-FLuc": {"tested_on": "A549 Red-FLuc", "assay": "Cytotoxicity, cell count method", "type": "cell-based", "settings": "Homo sapiens, 72 hours of incubation", "method": "as §6, §7"}, "SK-LU1": {"tested_on": "SK-LU1", "assay": "Cytotoxicity, cell count method", "type": "cell-based", "settings": "Homo sapiens, SK-LU-1, SK-LU1, 72 hours of incubation", "method": "as §6, §7"}, "PANC-1 cell line": {"tested_on": "PANC-1 cell line", "assay": "Cytotoxicity, cell count method", "type": "cell-based", "settings": "Homo sapiens, PANC-1, 72 hours of incubation", "method": "as §6, §7"}, "DU145 cell line": {"tested_on": "DU145 cell line", "assay": "Cytotoxicity, cell count method", "type": "cell-based", "settings": "Homo sapiens, DU-145, DU145, 72 hours of incubation", "method": "as §6, §7"}, "U87": {"tested_on": "U87", "assay": "Cytotoxicity, cell count method", "type": "cell-based", "settings": "Homo sapiens, U-87 MG, U87, 72 hours of incubation", "method": "as §6, §7"}, "HUH7 cell line": {"tested_on": "HUH7 cell line", "assay": "Cytotoxicity, cell count method", "type": "cell-based", "settings": "Homo sapiens, Huh-7, HUH7, 72 hours of incubation", "method": "as §6, §7"}},
  "data": [
    {"smiles": "CCCCc1cn(-c2ccc(-c3nnc(-c4ccccc4C(F)(F)F)o3)cc2)nn1", "note": "[Compound 5]", "values": [
      {"measurement": "Kidney to plasma", "setting": "[1]; 4 hours after single administration I.P. 45 mg/Kg", "result": 11.5},
      {"measurement": "Kidney to plasma", "setting": "[1]; 8 hours after single administration I.P. 45 mg/Kg", "result": 9.2},
      {"measurement": "Kidney to plasma", "setting": "[1]; 24 hours after single administration I.P. 45 mg/Kg", "result": 9.3},
      {"measurement": "solubility at 2 h", "setting": "[2]; 37 °C, aqueous buffer, kinetic from dmso stock, kinetic solubility, PBS pH 7.4, read-out: solubility", "result": "> 100", "unit": "µM"},
      {"measurement": "Absorbance at 620nm", "setting": "[2]; conc. 1 µM", "result": 0.037},
      {"measurement": "Absorbance at 620nm", "setting": "[2]; conc. 3 µM", "result": 0.037},
      {"measurement": "Absorbance at 620nm", "setting": "[2]; conc. 10 µM", "result": 0.037},
      {"measurement": "Absorbance at 620nm", "setting": "[2]; conc. 30 µM", "result": 0.037},
      {"measurement": "Absorbance at 620nm", "setting": "[2]; conc. 100 µM", "result": 0.038},
      {"measurement": "% Remaining ± SD", "setting": "Plasma stability [3]; 0 minutes", "result": "100.0 ± 3.9", "unit": "%"},
      {"measurement": "% Remaining ± SD", "setting": "Plasma stability [3]; 10 minutes", "result": "107.1 ± 7.7", "unit": "%"},
      {"measurement": "% Remaining ± SD", "setting": "Plasma stability [3]; 30 minutes", "result": "87.2 ± 10.3", "unit": "%"},
      {"measurement": "% Remaining ± SD", "setting": "Plasma stability [3]; 60 minutes", "result": "88.3 ± 7.0", "unit": "%"},
      {"measurement": "% Remaining ± SD", "setting": "Plasma stability [3]; 120 minutes", "result": "88.2 ± 8.2", "unit": "%"},
      {"measurement": "% Remaining ± SD", "setting": "Plasma stability [4]; 0 minutes", "result": "100.0 ± 1.0", "unit": "%"},
      {"measurement": "% Remaining ± SD", "setting": "Plasma stability [4]; 10 minutes", "result": "107.1 ± 4.1", "unit": "%"},
      {"measurement": "% Remaining ± SD", "setting": "Plasma stability [4]; 30 minutes", "result": "103.3 ± 2.3", "unit": "%"},
      {"measurement": "% Remaining ± SD", "setting": "Plasma stability [4]; 60 minutes", "result": "99.0 ± 6.8", "unit": "%"},
      {"measurement": "% Remaining ± SD", "setting": "Plasma stability [4]; 120 minutes", "result": "104.8 ± 5.6", "unit": "%"},
      {"measurement": "IC50", "setting": "A549", "result": 350, "unit": "nM"},
      {"measurement": "IC50", "setting": "CALU1", "result": 370, "unit": "nM"},
      {"measurement": "IC50", "setting": "A375 cell line", "result": 940, "unit": "nM"},
      {"measurement": "IC50", "setting": "A549 Red-FLuc", "result": 6040, "unit": "nM"},
      {"measurement": "IC50", "setting": "SK-LU1", "result": 420, "unit": "nM"},
      {"measurement": "IC50", "setting": "PANC-1 cell line", "result": 720, "unit": "nM"},
      {"measurement": "IC50", "setting": "DU145 cell line", "result": 3700, "unit": "nM"},
      {"measurement": "IC50", "setting": "U87", "result": 3900, "unit": "nM"},
      {"measurement": "IC50", "setting": "HUH7 cell line", "result": 3280, "unit": "nM"}
    ]}
  ]
}
